According to patent US7767240B2, “Microbiological control in poultry processing” (priority 2001, dated 2010):

Tests used:
[1] = system: Salmonella; assay: Salmonella positive samples, simulated USDA HACCP detection (Example 7); assay type: cell-based, Salmonella enteritidis; conditions: 20 ppm (Cl2 equivalent) during chilling; for Salmonella positive samples (Number 51): birds inoculated with Salmonella prior to chilling, control 21/51; for Salmonella positive samples (%): control 41.18%
Source text: After normal processing of 56-day-old birds, carcasses were immersed first in a warm bath containing 10^4 per mL Escherichia coli, 10^4 per mL Salmonella enteritidis, 10^4 per mL Pseudomonas aeruginosa, 10^4 per mL Campylobacter jejuni, and 10^4 per mL spoilage bacteria each from two strains (Listeria monocytogenes and Shigella sonnei). Carcasses were then immersed in a chill tank “soup”, containing normal organic fluids (blood, fat, skin, and meat particles) and containing various disinfectants (termed test materials). These whole bird bacteria count tests were conducted at pH 8. The effect of the test compounds on skin pigmentation was determined by use of Minolta Color Meter L value or Lightness, a value or redness and b value or yellowness. Post-chilling skin bacteria of various strains were determined over a 20-day period. Spoilage, using sensory odors as a model, determined time required to create a putrid/ammonia-like odor. After salmonella infection in chill tanks, USDA HACCP salmonella detection was simulated and reported.
DBDMH and BCDMH stock solutions and diluted test solutions (20 ppm Cl2 equivalent), a bacteria stock solution, and a “chicken soup” were prepared as in Example 3 except that the Stabrom® 909 biocide concentrate was diluted by adding 30 mL per liter of water just prior to application. This diluted solution was sprayed on the birds, both inside and outside, in quantities of 200 mL per bird. In addition, the bacterial broth treatments, the whole bird wash sampling procedure, and the methodologies used for quantitative or qualitative determinations for bacterial organisms were conducted as in Example 3.
The details concerning the trial events used as well as the detailed experimental design used in these tests were the same as described in Example 6. The only exceptions were: • a) In the case of the birds of Test Group 5 (note Table 38), while the carcass was still warm, the 10 birds were each sprayed both internally and externally, using a misting hand-held nozzle, with 200 mL of the 3% solution of Stabrom 909 biocide (SSBC). […] The spray was allowed to stay on the warm carcasses for 60 seconds. • b) The treatment on sampling day 0 of 102 total of the remaining 110 carcasses from each treatment involving “whole bird” washing and Salmonella detection, all as described in Example 6, was applied only to the birds of Test Groups 1-4 (note Table 38).

[2] = system: Escherichia coli; assay: AOAC test method, kill of bacterial culture; assay type: cell-based; conditions: for concentration required to achieve complete kill within 30 seconds: Escherichia coli, AOAC test
Description: (§1) One such series of tests involved determinations of microbiological control against Escherichia coli bacteria. Another set of tests involved determinations of microbiological control against Enterococcus faecium. In each case, comparative tests were carried out in the same manner utilizing the AOAC test method. Such test involves exposing a culture of the microorganism to various concentrations of a test solution prepared from an aqueous stock solution of the compound under test. At various time intervals the halogen in the test suspensions is chemically neutralized, and the amount of viable bacteria remaining is enumerated by plating onto nutrient agar and incubating for 2 days at 37° C. Results are expressed at the log10 colony forming units (CFU). The concentration of the compound required to achieve complete kill (i.e., no viable bacteria remain) within 30 seconds is determined in the test.
Table 43 summarizes the data obtained in the tests using respectively, 1,3-dibromo-5,5-dimethylhydantoin (DBDMH) and N,N′-bromochloro-5,5-dimethylhydantoin (BCDMH) and in which the microorganism in each case was Escherichia coli. It can be seen that 1,3-dibromo-5,5-dimethylhydantoin passed the test at one milligram of bromine, as […] per liter of water, as evidenced by the complete kill within 30 seconds, whereas 1,3-bromochloro-5,5-dimethylhydantoin required two milligrams of bromine, as Br2, per liter of water to achieve complete kill within 30 seconds.

[3] = system: Enterococcus faecium; assay: AOAC test method, kill of bacterial culture; assay type: cell-based; conditions: for concentration required to achieve complete kill within 30 seconds: Enterococcus faecium, AOAC test
Description: as §1
Table 44 summarizes the data obtained in the tests using respectively 1,3-dibromo-5,5-dimethylhydantoin (DBDMH) and N,N-bromochloro-5,5-dimethylhydantoin (BCDMH) and in which the microorganism in each case was Enterococcus faecium.

[4] = assay type: physicochemical
Source text: Another mode of applying the microbiocidally-effective amounts of solid-state microbiocides of these embodiments of the invention is to cause the microbiocide to be leached into water streams passing through conduits and into tanks or other washing devices utilized in the processing of the poultry. For example, suitable solid forms of the microbiocide, preferably a bromine-based microbiocide, such as tablets, briquettes, pellets, nuggets, or granules are placed in suitable feeding devices through which a stream of water is passed. The passage of the water through the bed of the microbiocide results in the stream continuously dissolving small quantities of the microbiocide to thereby provide microbiocidally effective amounts of the microbiocide in the water. 1,3-Dibromo-5,5-dimethylhydantoin is especially preferred for use in this mode of application because of its relatively low solubility and thus relatively slow rate of dissolution in water at ambient room temperatures. This translates into relatively long periods of use before need of refilling the device holding the solids.

[5] = 0.5 mg/L as Br2, contact time 30 sec
[6] = 0.5 mg/L as Br2, contact time 1 min
[7] = 0.5 mg/L as Br2, contact time 2 min
[8] = 0.5 mg/L as Br2, contact time 3 min
[9] = 0.5 mg/L as Br2, contact time 4 min
[10] = 0.5 mg/L as Br2, contact time 5 min
[11] = 0.5 mg/L as Br2, contact time 10 min
[12] = 1.0 mg/L as Br2, contact time 30 sec
[13] = 1.0 mg/L as Br2, contact time 1 min
[14] = 1.0 mg/L as Br2, contact time 2 min
[15] = 1.0 mg/L as Br2, contact time 3 min
[16] = 1.0 mg/L as Br2, contact time 4 min
[17] = 1.0 mg/L as Br2, contact time 5 min
[18] = 1.0 mg/L as Br2, contact time 10 min
[19] = 2.0 mg/L as Br2, contact time 30 sec
[20] = 2.0 mg/L as Br2, contact time 1 min
[21] = 2.0 mg/L as Br2, contact time 2 min
[22] = 2.0 mg/L as Br2, contact time 3 min
[23] = 2.0 mg/L as Br2, contact time 4 min
[24] = 2.0 mg/L as Br2, contact time 5 min
[25] = 2.0 mg/L as Br2, contact time 10 min

Structure (SMILES): CC1(C)C(=O)N(Cl)C(=O)N1Br [BCDMH, N,N′-bromochloro-5,5-dimethylhydantoin]
- Salmonella positive samples (Number 51) [1]: 6/51
- Salmonella positive samples (%) [1]: 11.76%
- Log10 CFU Recovered [2, 5]: >4.48 Log10 CFU
- Log10 CFU Recovered [2, 6]: 4.46 Log10 CFU
- Log10 CFU Recovered [2, 7]: 1.65 Log10 CFU
- Log10 CFU Recovered [2, 8]: 0 Log10 CFU
- Log10 CFU Recovered [2, 9]: 0 Log10 CFU
- Log10 CFU Recovered [2, 10]: 0 Log10 CFU
- Log10 CFU Recovered [2, 11]: 0 Log10 CFU
- Log10 CFU Recovered [2, 12]: >4.48 Log10 CFU
- Log10 CFU Recovered [2, 13]: 0.7 Log10 CFU
- Log10 CFU Recovered [2, 14]: 0 Log10 CFU
- Log10 CFU Recovered [2, 15]: 0 Log10 CFU
- Log10 CFU Recovered [2, 16]: 0 Log10 CFU
- Log10 CFU Recovered [2, 17]: 0 Log10 CFU
- Log10 CFU Recovered [2, 18]: 0 Log10 CFU
- Log10 CFU Recovered [2, 19]: 0 Log10 CFU
- Log10 CFU Recovered [2, 20]: 0 Log10 CFU
- Log10 CFU Recovered [2, 21]: 0 Log10 CFU
- Log10 CFU Recovered [2, 22]: 0 Log10 CFU
- Log10 CFU Recovered [2, 23]: 0 Log10 CFU
- Log10 CFU Recovered [2, 24]: 0 Log10 CFU
- Log10 CFU Recovered [2, 25]: 0 Log10 CFU
- concentration required to achieve complete kill within 30 seconds [2]: two
- Log10 CFU Recovered [3, 5]: >4.48 Log10 CFU
- Log10 CFU Recovered [3, 6]: 3.53 Log10 CFU
- Log10 CFU Recovered [3, 7]: 2.63 Log10 CFU
- Log10 CFU Recovered [3, 8]: 0.00 Log10 CFU
- Log10 CFU Recovered [3, 9]: 0.00 Log10 CFU
- Log10 CFU Recovered [3, 10]: 0.00 Log10 CFU
- Log10 CFU Recovered [3, 11]: 0.00 Log10 CFU
- Log10 CFU Recovered [3, 12]: >4.48 Log10 CFU
- Log10 CFU Recovered [3, 13]: 2.38 Log10 CFU
- Log10 CFU Recovered [3, 14]: 0.00 Log10 CFU
- Log10 CFU Recovered [3, 15]: 0.00 Log10 CFU
- Log10 CFU Recovered [3, 16]: 0.00 Log10 CFU
- Log10 CFU Recovered [3, 17]: 0.00 Log10 CFU
- Log10 CFU Recovered [3, 18]: 0.00 Log10 CFU
- Log10 CFU Recovered [3, 19]: 0.00 Log10 CFU
- Log10 CFU Recovered [3, 20]: 0.00 Log10 CFU
- Log10 CFU Recovered [3, 21]: 0.00 Log10 CFU
- Log10 CFU Recovered [3, 22]: 0.00 Log10 CFU
- Log10 CFU Recovered [3, 23]: 0.00 Log10 CFU
- Log10 CFU Recovered [3, 24]: 0.00 Log10 CFU
- Log10 CFU Recovered [3, 25]: 0.00 Log10 CFU
- concentration required to achieve complete kill within 30 seconds [3]: two
- solubility in water [4]: 890 ppm expressed as Cl2

Structure (SMILES): CC1(C)C(=O)N(Br)C(=O)N1Br [DBDMH, 1,3-dibromo-5,5-dimethylhydantoin]
- Salmonella positive samples (Number 51) [1]: 1/51
- Salmonella positive samples (%) [1]: 1.96%
- Log10 CFU Recovered [2, 5]: >4.48 Log10 CFU
- Log10 CFU Recovered [2, 6]: 1.70 Log10 CFU
- Log10 CFU Recovered [2, 7]: 0 Log10 CFU
- Log10 CFU Recovered [2, 8]: 0 Log10 CFU
- Log10 CFU Recovered [2, 9]: 0 Log10 CFU
- Log10 CFU Recovered [2, 10]: 0 Log10 CFU
- Log10 CFU Recovered [2, 11]: 0 Log10 CFU
- Log10 CFU Recovered [2, 12]: 0 Log10 CFU
- Log10 CFU Recovered [2, 13]: 0 Log10 CFU
- Log10 CFU Recovered [2, 14]: 0 Log10 CFU
- Log10 CFU Recovered [2, 15]: 0 Log10 CFU
- Log10 CFU Recovered [2, 16]: 0 Log10 CFU
- Log10 CFU Recovered [2, 17]: 0 Log10 CFU
- Log10 CFU Recovered [2, 18]: 0 Log10 CFU
- Log10 CFU Recovered [2, 19]: 0 Log10 CFU
- Log10 CFU Recovered [2, 20]: 0 Log10 CFU
- Log10 CFU Recovered [2, 21]: 0 Log10 CFU
- Log10 CFU Recovered [2, 22]: 0 Log10 CFU
- Log10 CFU Recovered [2, 23]: 0 Log10 CFU
- Log10 CFU Recovered [2, 24]: 0 Log10 CFU
- Log10 CFU Recovered [2, 25]: 0 Log10 CFU
- concentration required to achieve complete kill within 30 seconds [2]: one
- Log10 CFU Recovered [3, 5]: 4.32 Log10 CFU
- Log10 CFU Recovered [3, 6]: 2.36 Log10 CFU
- Log10 CFU Recovered [3, 7]: 0.00 Log10 CFU
- Log10 CFU Recovered [3, 8]: 0.00 Log10 CFU
- Log10 CFU Recovered [3, 9]: 0.00 Log10 CFU
- Log10 CFU Recovered [3, 10]: 0.00 Log10 CFU
- Log10 CFU Recovered [3, 11]: 0.00 Log10 CFU
- Log10 CFU Recovered [3, 12]: 0.00 Log10 CFU
- Log10 CFU Recovered [3, 13]: 0.00 Log10 CFU
- Log10 CFU Recovered [3, 14]: 0.00 Log10 CFU
- Log10 CFU Recovered [3, 15]: 0.00 Log10 CFU
- Log10 CFU Recovered [3, 16]: 0.00 Log10 CFU
- Log10 CFU Recovered [3, 17]: 0.00 Log10 CFU
- Log10 CFU Recovered [3, 18]: 0.00 Log10 CFU
- Log10 CFU Recovered [3, 19]: 0.00 Log10 CFU
- Log10 CFU Recovered [3, 20]: 0.00 Log10 CFU
- Log10 CFU Recovered [3, 21]: 0.00 Log10 CFU
- Log10 CFU Recovered [3, 22]: 0.00 Log10 CFU
- Log10 CFU Recovered [3, 23]: 0.00 Log10 CFU
- Log10 CFU Recovered [3, 24]: 0.00 Log10 CFU
- Log10 CFU Recovered [3, 25]: 0.00 Log10 CFU
- concentration required to achieve complete kill within 30 seconds [3]: one
- solubility in water [4]: 405 ppm expressed as Cl2
